Experimental data as given in patent US8952024B2, “Herbicidal pyrimidone derivatives” (E I du Pont de Nemours and Company, priority 2009, dated 2015).

Experiments:
Assay in all cases: Test B pre-/postemergence plant response
Type in all cases: in vivo
[1] = tested on: bermudagrass (Cynodon dactylon); settings: for Bermudagrass plant response rating (0 to 100 scale): 0 is no effect
Method in brief: (§1)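 Greenhouse herbicide screen. Pre- and postemergence (1- to 4-leaf) spray of compound in solvent/surfactant mixture; loam–sand soil for pre, peat/vermiculite medium for post. Visual control rating 0–100 at 13 to 15 days after treatment.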

[2] = tested on: goosegrass (Eleusine indica)
Method in brief: as §1

[3] = tested on: green foxtail (Setaria viridis)
Method in brief: as §1

[4] = tested on: johnsongrass (Sorghum halepense)
Method in brief: as §1

kochia (Kochia scoparia) = tested on: kochia (Kochia scoparia)
Method in brief: as §1

[5] = tested on: lambsquarters (Chenopodium album)
Method in brief: as §1

[6] = tested on: large crabgrass (Digitaria sanguinalis)
Method in brief: as §1

[7] = tested on: ragweed (common ragweed, Ambrosia elatior)
Method in brief: as §1

soybean (Glycine max) = tested on: soybean (Glycine max)
Method in brief: as §1

[8] = tested on: velvetleaf (Abutilon theophrasti)
Method in brief: as §1

[9] = tested on: wheat (Triticum aestivum)
Method in brief: as §1

[10] = tested on: woolly cupgrass (Eriochloa villosa)
Method in brief: as §1

[11] = tested on: yellow nutsedge (Cyperus esculentus)
Method in brief: as §1

[12] = Postemergence, 31 g ai/ha, 0 to 100 scale (0 no effect, 100 complete control)
[13] = Postemergence, 62 g ai/ha, scale 0 to 100 (0 no effect, 100 complete control)
[14] = Postemergence, 125 g ai/ha, scale 0 (no effect) to 100 (complete control), 13 to 15 days
[15] = Postemergence, 250 g ai/ha, scale 0 to 100 (0 no effect, 100 complete control), 13 to 15 days
[16] = Preemergence, 31 g ai/ha, scale 0 to 100 (0 no effect, 100 complete control)
[17] = Preemergence, 62 g ai/ha, scale 0 to 100 (0 no effect, 100 complete control)
[18] = Preemergence, 125 g ai/ha, scale 0 to 100, 0 no effect, 100 complete control
[19] = Preemergence, 250 g ai/ha, 0 to 100 scale
[20] = 31 g ai/ha, postemergence, scale 0 to 100, 0 is no effect, 100 is complete control
[21] = 62 g ai/ha, postemergence, 100 is complete control, 13 to 15 days
[22] = Postemergence, 125 g ai/ha, scale 0 to 100 (0 no effect, 100 complete control)
[23] = Postemergence, 250 g ai/ha, scale 0 to 100 (0 no effect, 100 complete control)
[24] = 62 g ai/ha, postemergence, 0 is no effect, 100 is complete control, 13 to 15 days
[25] = 8 g ai/ha, Postemergence, 0 to 100 scale
[26] = 16 g ai/ha, Postemergence, 0 to 100 scale

CCCCn1c(-c2cc(F)cc(F)c2)ncc(C(=O)C2=C(O)C3CCC(C3)C2=O)c1=O (centres unmarked) [Compound 245]
Plant response rating, Bermudagrass [1, 12]: 80
Plant response rating, Bermudagrass [1, 13]: 100
Plant response rating, Bermudagrass [1, 14]: 100
Plant response rating, Bermudagrass [1, 15]: 100
Plant response rating, Bermudagrass [1, 16]: 98
Plant response rating, Bermudagrass [1, 17]: 100
Plant response rating, Bermudagrass [1, 18]: 100
Bermudagrass plant response rating ([1]; Preemergence, 250 g ai/ha, 0 to 100 scale, 0 no effect, 100 complete control): 100
Plant response rating, Goosegrass [2, 12]: 98
Plant response rating, Goosegrass [2, 13]: 98
Plant response rating, Goosegrass [2, 14]: 100
Plant response rating, Goosegrass [2, 15]: 100
Plant response rating, Goosegrass [2, 16]: 95
Plant response rating, Goosegrass [2, 17]: 100
Plant response rating, Goosegrass [2, 18]: 100
Goosegrass plant response rating [2, 19]: 100
Plant response rating, Foxtail, Green [3, 12]: 85
Plant response rating, Foxtail, Green [3, 13]: 98
Plant response rating, Foxtail, Green [3, 14]: 100
Plant response rating, Foxtail, Green [3, 15]: 100
Plant response rating, Foxtail, Green [3, 16]: 0
Plant response rating, Foxtail, Green [3, 17]: 0
Plant response rating, Foxtail, Green [3, 18]: 75
Foxtail, Green plant response rating [3, 19]: 100
Plant response rating, Johnsongrass [4, 12]: 100
Plant response rating, Johnsongrass [4, 13]: 100
Plant response rating, Johnsongrass [4, 14]: 100
Plant response rating, Johnsongrass [4, 15]: 100
Plant response rating, Johnsongrass [4, 16]: 65
Plant response rating, Johnsongrass [4, 17]: 75
Plant response rating, Johnsongrass [4, 18]: 80
Johnsongrass plant response rating [4, 19]: 100
Plant response rating, Kochia (kochia (Kochia scoparia); [12]): 85
Plant response rating, Kochia (kochia (Kochia scoparia); [13]): 100
Plant response rating, Kochia (kochia (Kochia scoparia); [14]): 100
Plant response rating, Kochia (kochia (Kochia scoparia); [15]): 100
Plant response rating, Kochia (kochia (Kochia scoparia); [16]): 0
Plant response rating, Kochia (kochia (Kochia scoparia); [17]): 45
Plant response rating, Kochia (kochia (Kochia scoparia); [18]): 98
Kochia plant response rating (kochia (Kochia scoparia); [19]): 100
Plant response rating, Lambsquarters [5, 12]: 98
Plant response rating, Lambsquarters [5, 13]: 100
Plant response rating, Lambsquarters [5, 14]: 100
Plant response rating, Lambsquarters [5, 15]: 100
Plant response rating, Lambsquarters [5, 16]: 100
Plant response rating, Lambsquarters [5, 17]: 100
Plant response rating, Lambsquarters [5, 18]: 100
Lambsquarters plant response rating [5, 19]: 100
Plant response rating, Crabgrass, Large [6, 12]: 80
Plant response rating, Crabgrass, Large [6, 13]: 100
Plant response rating, Crabgrass, Large [6, 14]: 100
Plant response rating, Crabgrass, Large [6, 15]: 100
Plant response rating, Crabgrass, Large [6, 16]: 60
Plant response rating, Crabgrass, Large [6, 17]: 100
Plant response rating, Crabgrass, Large [6, 18]: 100
Crabgrass, Large plant response rating [6, 19]: 100
Plant response rating, Ragweed [7, 12]: 95
Plant response rating, Ragweed [7, 13]: 98
Plant response rating, Ragweed [7, 14]: 100
Plant response rating, Ragweed [7, 15]: 100
Plant response rating, Ragweed [7, 16]: 75
Plant response rating, Ragweed [7, 17]: 85
Plant response rating, Ragweed [7, 18]: 100
Ragweed plant response rating [7, 19]: 100
Plant response rating, Soybean (soybean (Glycine max); [12]): 95
Plant response rating, Soybean (soybean (Glycine max); [13]): 98
Plant response rating, Soybean (soybean (Glycine max); [14]): 100
Plant response rating, Soybean (soybean (Glycine max); [15]): 100
Plant response rating, Soybean (soybean (Glycine max); [16]): 0
Plant response rating, Soybean (soybean (Glycine max); [17]): 10
Plant response rating, Soybean (soybean (Glycine max); [18]): 55
Soybean plant response rating (soybean (Glycine max); [19]): 75
Plant response rating, Velvetleaf [8, 12]: 100
Plant response rating, Velvetleaf [8, 13]: 100
Plant response rating, Velvetleaf [8, 14]: 100
Plant response rating, Velvetleaf [8, 15]: 100
Plant response rating, Velvetleaf [8, 16]: 95
Plant response rating, Velvetleaf [8, 17]: 100
Plant response rating, Velvetleaf [8, 18]: 100
Velvetleaf plant response rating [8, 19]: 100
Plant response rating, Wheat [9, 12]: 75
Plant response rating, Wheat [9, 13]: 95
Plant response rating, Wheat [9, 14]: 95
Plant response rating, Wheat [9, 15]: 98
Plant response rating, Wheat [9, 16]: 0
Plant response rating, Wheat [9, 17]: 0
Plant response rating, Wheat [9, 18]: 5
Wheat plant response rating [9, 19]: 15
Plant response rating, Cupgrass, Woolly [10, 12]: 100
Plant response rating, Cupgrass, Woolly [10, 13]: 100
Plant response rating, Cupgrass, Woolly [10, 14]: 100
Plant response rating, Cupgrass, Woolly [10, 15]: 100
Plant response rating, Cupgrass, Woolly [10, 16]: 50
Plant response rating, Cupgrass, Woolly [10, 17]: 70
Plant response rating, Cupgrass, Woolly [10, 18]: 80
Cupgrass, Woolly plant response rating [10, 19]: 100
Plant response rating, Nutsedge, Yellow [11, 12]: 40
Plant response rating, Nutsedge, Yellow [11, 13]: 45
Plant response rating, Nutsedge, Yellow [11, 14]: 70
Plant response rating, Nutsedge, Yellow [11, 15]: 75
Plant response rating, Nutsedge, Yellow [11, 16]: 0
Plant response rating, Nutsedge, Yellow [11, 17]: 0
Plant response rating, Nutsedge, Yellow [11, 18]: 65
Nutsedge, Yellow plant response rating [11, 19]: 80

CCCn1c(-c2ccc(F)cc2)ncc(C(=O)C2=C(O)CCCC2=O)c1=O [Compound 102]
Plant response rating, Bermudagrass [1, 20]: 80
Bermudagrass plant response rating (0 to 100 scale) [1, 21]: 85
Plant response rating, Bermudagrass [1, 22]: 85
Plant response rating, Bermudagrass [1, 23]: 100
Plant response rating, Goosegrass [2, 20]: 55
Goosegrass plant response rating (0 to 100 scale) [2, 24]: 70
Plant response rating, Goosegrass [2, 22]: 80
Plant response rating, Goosegrass [2, 23]: 90
Plant response rating, Foxtail, Green [3, 20]: 80
Foxtail, Green plant response rating (0 to 100 scale) [3, 24]: 90
Plant response rating, Foxtail, Green [3, 22]: 90
Plant response rating, Foxtail, Green [3, 23]: 95
Plant response rating, Johnsongrass [4, 20]: 20
Johnsongrass plant response rating (0 to 100 scale) [4, 24]: 25
Plant response rating, Johnsongrass [4, 22]: 60
Plant response rating, Johnsongrass [4, 23]: 75
Plant response rating, Kochia (kochia (Kochia scoparia); [20]): 65
Kochia plant response rating (0 to 100 scale) (kochia (Kochia scoparia); [24]): 70
Plant response rating, Kochia (kochia (Kochia scoparia); [22]): 100
Plant response rating, Kochia (kochia (Kochia scoparia); [23]): 100
Plant response rating, Lambsquarters [5, 20]: 95
Lambsquarters plant response rating (0 to 100 scale) [5, 24]: 98
Plant response rating, Lambsquarters [5, 22]: 100
Plant response rating, Lambsquarters [5, 23]: 100
Plant response rating, Crabgrass, Large [6, 20]: 70
Crabgrass, Large plant response rating (0 to 100 scale) [6, 24]: 80
Plant response rating, Crabgrass, Large [6, 22]: 85
Plant response rating, Crabgrass, Large [6, 23]: 90
Ragweed plant response rating (0 to 100 scale) [7, 24]: 80
Plant response rating, Ragweed [7, 22]: 85
Plant response rating, Ragweed [7, 23]: 95
Soybean plant response rating (0 to 100 scale) (soybean (Glycine max); [24]): 85
Plant response rating, Soybean (soybean (Glycine max); [22]): 95
Plant response rating, Soybean (soybean (Glycine max); [23]): 100
Velvetleaf plant response rating (0 to 100 scale) [8, 24]: 100
Plant response rating, Velvetleaf [8, 22]: 100
Plant response rating, Velvetleaf [8, 23]: 100
Wheat plant response rating (0 to 100 scale) [9, 24]: 10
Plant response rating, Wheat [9, 22]: 20
Plant response rating, Cupgrass, Woolly [10, 20]: 70
Cupgrass, Woolly plant response rating (0 to 100 scale) [10, 24]: 75
Plant response rating, Cupgrass, Woolly [10, 22]: 75
Plant response rating, Cupgrass, Woolly [10, 23]: 85
Plant response rating, Nutsedge, Yellow [11, 20]: 45
Nutsedge, Yellow plant response rating (0 to 100 scale) [11, 24]: 65
Plant response rating, Nutsedge, Yellow [11, 22]: 75
Plant response rating, Nutsedge, Yellow [11, 23]: 80

Cc1ccccc1-n1c(-c2cc(F)cc(F)c2)ncc(C(=O)C2=C(O)CCCC2=O)c1=O [Compound 159]
Plant response rating, Bermudagrass [1, 25]: 70
Plant response rating, Bermudagrass [1, 26]: 80
Bermudagrass plant response rating (0 to 100 scale) [1, 21]: 100
Plant response rating, Bermudagrass [1, 12]: 95
Plant response rating, Goosegrass [2, 25]: 70
Plant response rating, Goosegrass [2, 26]: 80
Plant response rating, Goosegrass [2, 12]: 85
Plant response rating, Foxtail, Green [3, 25]: 50
Plant response rating, Foxtail, Green [3, 26]: 80
Plant response rating, Foxtail, Green [3, 12]: 85
Plant response rating, Johnsongrass [4, 25]: 10
Plant response rating, Johnsongrass [4, 26]: 45
Plant response rating, Johnsongrass [4, 12]: 45
Plant response rating, Kochia (kochia (Kochia scoparia); [25]): 20
Plant response rating, Kochia (kochia (Kochia scoparia); [26]): 20
Plant response rating, Kochia (kochia (Kochia scoparia); [12]): 40
Plant response rating, Lambsquarters [5, 25]: 90
Plant response rating, Lambsquarters [5, 26]: 95
Plant response rating, Lambsquarters [5, 12]: 100
Plant response rating, Crabgrass, Large [6, 25]: 65
Plant response rating, Crabgrass, Large [6, 26]: 75
Plant response rating, Crabgrass, Large [6, 12]: 80
Plant response rating, Ragweed [7, 25]: 65
Plant response rating, Ragweed [7, 26]: 80
Plant response rating, Ragweed [7, 12]: 90
Plant response rating, Soybean (soybean (Glycine max); [25]): 80
Plant response rating, Soybean (soybean (Glycine max); [26]): 85
Plant response rating, Soybean (soybean (Glycine max); [12]): 95
Plant response rating, Velvetleaf [8, 25]: 98
Plant response rating, Velvetleaf [8, 26]: 100
Plant response rating, Velvetleaf [8, 12]: 100
Plant response rating, Wheat [9, 25]: 10
Plant response rating, Wheat [9, 26]: 35
Plant response rating, Wheat [9, 12]: 40
Plant response rating, Cupgrass, Woolly [10, 25]: 60
Plant response rating, Cupgrass, Woolly [10, 26]: 65
Plant response rating, Cupgrass, Woolly [10, 12]: 70
Plant response rating, Nutsedge, Yellow [11, 25]: 10
Plant response rating, Nutsedge, Yellow [11, 26]: 20
Plant response rating, Nutsedge, Yellow [11, 12]: 40
